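All cell lines were grown in 96-well plates and treated with compound for 48 hours. Abbreviation: GI50, concentration required for 50% inhibition of growth.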 The source made the active and inactive calls. No stated cut-off is given here; in the data, active = GI50 up to about 1.1 µM and inactive = higher.
Assays:
Experiment in all cases: DTP human tumour cell line panel, 48 h
[1] = test system: KM12
[2] = test system: SN12C
[3] = test system: OVCAR-8
[4] = test system: MDA-MB-435
[5] = test system: Hs-578T
[6] = test system: NCI-H522
[7] = test system: RPMI-8226
[8] = test system: RXF 393
[9] = test system: SNB-75
[10] = test system: SF-295
[11] = test system: NCI-H226
[12] = test system: SW-620
[13] = test system: EKVX
[14] = test system: M14
[15] = test system: SF-268
[16] = test system: CCRF-CEM
[17] = test system: TK-10
[18] = test system: MDA-N
[19] = test system: NCI-H460
[20] = test system: HCC 2998

| Structure (SMILES) | GI50 [1] | GI50 [2] | GI50 [3] | GI50 [4] | GI50 [5] | GI50 [6] | GI50 [7] | GI50 [8] | GI50 [9] | GI50 [10] | GI50 [11] | GI50 [12] | GI50 [13] | GI50 [14] | GI50 [15] | GI50 [16] | GI50 [17] | GI50 [18] | GI50 [19] | GI50 [20] |
| --- | --- | --- | --- | --- | --- | --- | --- | --- | --- | --- | --- | --- | --- | --- | --- | --- | --- | --- | --- | --- |
| Cc1cc(C(=O)CCCCOc2ccc(C3=NCCO3)cc2)c(C)n1C | 38.5 µM (inactive) | 56.5 µM (inactive) | 33.2 µM (inactive) | 24.7 µM (inactive) | 98.2 µM (inactive) | 50.7 µM (inactive) | 37.3 µM (inactive) | 13.2 µM (inactive) | 21 µM (inactive) | 34.4 µM (inactive) | 29.3 µM (inactive) | 33.2 µM (inactive) | 35.8 µM (inactive) | 37.8 µM (inactive) | 52.1 µM (inactive) | 20.6 µM (inactive) | 44.9 µM (inactive) | 28.1 µM (inactive) |  |  |
| NS(=O)(=O)c1ccc(Nc2c3ccccc3nc3c(C(=O)NCCO)cccc23)cc1 | 0.137 µM (active) | 0.176 µM (active) | 0.173 µM (active) | 0.203 µM (active) | 0.188 µM (active) | 0.127 µM (active) | 0.0676 µM (active) | 0.0857 µM (active) |  | 0.191 µM (active) | 0.113 µM (active) | 0.118 µM (active) | 0.251 µM (active) | 0.182 µM (active) | 0.141 µM (active) | 0.0335 µM (active) | 0.27 µM (active) | 0.196 µM (active) | 0.0439 µM (active) | 0.182 µM (active) |
| N#CC12C(=O)NC(=O)C1(C#N)C1C=CC2CC1 (centres undefined) | > 100 µM (inactive) | > 100 µM (inactive) | > 100 µM (inactive) | > 100 µM (inactive) | > 100 µM (inactive) | > 100 µM (inactive) | > 100 µM (inactive) | > 100 µM (inactive) | > 100 µM (inactive) | > 100 µM (inactive) | > 100 µM (inactive) | > 100 µM (inactive) | > 100 µM (inactive) | > 100 µM (inactive) | > 100 µM (inactive) | > 100 µM (inactive) | > 100 µM (inactive) | > 100 µM (inactive) |  |  |
| CC(=O)Oc1ccc2c(c1)[nH]c1c3ccc(OC(C)=O)cc3oc(=O)c21 | 29.1 µM (inactive) | 30.5 µM (inactive) | 35.4 µM (inactive) | 27.2 µM (inactive) | 31.3 µM (inactive) | 25.5 µM (inactive) |  | 26.7 µM (inactive) | 51.6 µM (inactive) | 44.1 µM (inactive) | 21.8 µM (inactive) | 25 µM (inactive) | 34.7 µM (inactive) | 30.5 µM (inactive) | 26.9 µM (inactive) | 19.3 µM (inactive) | 49.9 µM (inactive) | 33.3 µM (inactive) | 22.6 µM (inactive) | 26.5 µM (inactive) |
| COc1ccc(/C=C2\CN(C)CC3C2=NC(=S)NC3c2ccc(OC)cc2)cc1 (centres undefined) | 2.97 µM (inactive) | 6.81 µM (inactive) | 7.8 µM (inactive) | 1.33 µM (inactive) | 52.7 µM (inactive) | 1.63 µM (inactive) | 2.99 µM (inactive) | 2.17 µM (inactive) |  | 3.69 µM (inactive) | 41.5 µM (inactive) | 6.05 µM (inactive) | 11.5 µM (inactive) | 2.77 µM (inactive) | 5.64 µM (inactive) | 8.13 µM (inactive) | 27.2 µM (inactive) | 1.08 µM (active) | 2.8 µM (inactive) | 6.75 µM (inactive) |
| CC[C@]12C=CCN3CC[C@@]4(c5cc(N=O)c(OC)cc5N(C)[C@H]4[C@@](O)(C(=O)NC(Cc4c[nH]c5ccccc45)C(=O)OC)[C@@H]1O)[C@@H]32 (some centres undefined) | 12.5 µM (inactive) | 26.4 µM (inactive) | 17.5 µM (inactive) | 17.1 µM (inactive) | 22.4 µM (inactive) | 2.64 µM (inactive) |  | 12.6 µM (inactive) | 15 µM (inactive) | 17.1 µM (inactive) | 24.5 µM (inactive) | 6.93 µM (inactive) | 20.9 µM (inactive) | 19 µM (inactive) | 24.2 µM (inactive) | 3.27 µM (inactive) | 17.9 µM (inactive) | 20.3 µM (inactive) | 19.1 µM (inactive) | 15.6 µM (inactive) |
| O=C1c2cc([N+](=O)[O-])ccc2NC2C(O)c3ccccc3N12 (centres undefined) | 42.7 µM (inactive) | 48.9 µM (inactive) | 23.3 µM (inactive) | 52.8 µM (inactive) | 0.706 µM (active) | 16.2 µM (inactive) | 18.5 µM (inactive) | 16.9 µM (inactive) | 20.2 µM (inactive) | 30.1 µM (inactive) | 29.2 µM (inactive) |  | 0.619 µM (active) | 47.4 µM (inactive) | 27.2 µM (inactive) |  | 13.2 µM (inactive) | 69.5 µM (inactive) | 26.4 µM (inactive) | 47.9 µM (inactive) |
| C[N+](C)(C)C(C1=CCCC1=O)c1ccccc1 (centres undefined) | 19 µM (inactive) | 20.3 µM (inactive) | 25 µM (inactive) | 26.2 µM (inactive) | 33.4 µM (inactive) | 18.7 µM (inactive) | 15.8 µM (inactive) | 21 µM (inactive) | 52.8 µM (inactive) | > 100 µM (inactive) | 36.6 µM (inactive) | 21.5 µM (inactive) | > 100 µM (inactive) | > 100 µM (inactive) | 18.6 µM (inactive) | 12.5 µM (inactive) | 48.5 µM (inactive) | 33.4 µM (inactive) | 28.4 µM (inactive) |  |
| COc1ccc(/C=C2\N=C(SC)N(CN3CCOCC3)C2=O)cc1 | 78.3 µM (inactive) | > 100 µM (inactive) | 48.2 µM (inactive) | 74.8 µM (inactive) | 59.2 µM (inactive) | 82.8 µM (inactive) | 24.8 µM (inactive) |  | 60.7 µM (inactive) | 98.9 µM (inactive) | 29.2 µM (inactive) | 22 µM (inactive) | 55.2 µM (inactive) | 55 µM (inactive) | 48 µM (inactive) | 21.2 µM (inactive) | 56.5 µM (inactive) | 71.1 µM (inactive) |  |  |
| CC(C)(C)c1ccc2c(c1)C#Cc1cc(C(C)(C)C)ccc1OCCCO2 | > 100 µM (inactive) | > 100 µM (inactive) | > 100 µM (inactive) | > 100 µM (inactive) | > 100 µM (inactive) | > 100 µM (inactive) | > 100 µM (inactive) | > 100 µM (inactive) |  | > 100 µM (inactive) | > 100 µM (inactive) | > 100 µM (inactive) | > 100 µM (inactive) | > 100 µM (inactive) | > 100 µM (inactive) | > 100 µM (inactive) | > 100 µM (inactive) | > 100 µM (inactive) | > 100 µM (inactive) |  |
| Cc1ccc(C)c(NC(=O)C(=O)C2C(=O)C3=C(CC2(C)C)Nc2ccccc2S3)c1 (centres undefined) | > 100 µM (inactive) | > 100 µM (inactive) | 33.8 µM (inactive) | > 100 µM (inactive) | 69.2 µM (inactive) | > 100 µM (inactive) |  | 60.5 µM (inactive) | 29.4 µM (inactive) | 58.9 µM (inactive) | 58.1 µM (inactive) | > 100 µM (inactive) | 73.5 µM (inactive) | > 100 µM (inactive) | 62.7 µM (inactive) | 70.6 µM (inactive) | > 100 µM (inactive) | > 100 µM (inactive) | > 100 µM (inactive) | > 100 µM (inactive) |
| COC[C@@H](C[C@H]1O[C@@](O)([C@H](O)[C@@H]2C[C@H](OC)[C@@H](O)CC/C=C(C)/C=C/[C@@H](O[C@@H]3O[C@@H](C)[C@H](OC)[C@@H](O)[C@@H]3O)[C@H](C)/C=C(C)/C=C(C)/C=C(\C)C(=O)O2)[C@H](C)[C@@H](O)[C@H]1C)O[C@H]1C[C@](C)(O)[C@@H](O[C@H]2C[C@@H](OC)[C@H](O)[C@@H](C)O2)C(C)O1 (some centres undefined) | > 66.2 µM (inactive) | > 100 µM (inactive) | 1.44 µM (inactive) | > 89.1 µM (inactive) | 69 µM (inactive) | 0.0685 µM (active) | 86.5 µM (inactive) | > 100 µM (inactive) |  | 0.857 µM (active) | 0.91 µM (active) | > 85.7 µM (inactive) | 0.119 µM (active) | > 100 µM (inactive) | > 40.8 µM (inactive) |  | > 100 µM (inactive) | > 100 µM (inactive) | > 61 µM (inactive) | > 80.2 µM (inactive) |
| C[N+](C)(C)/C=N\c1cccc2nsnc12 |  | > 100 µM (inactive) | > 100 µM (inactive) | > 100 µM (inactive) | > 100 µM (inactive) | > 100 µM (inactive) | > 100 µM (inactive) | > 100 µM (inactive) | > 100 µM (inactive) | > 100 µM (inactive) | > 100 µM (inactive) |  | > 100 µM (inactive) | > 100 µM (inactive) | > 100 µM (inactive) | > 100 µM (inactive) | > 100 µM (inactive) | > 100 µM (inactive) |  |  |
| OC1CCCCCCCCCCC1[S+]1CCCC1.O[B-](F)(F)F (centres undefined) | > 100 µM (inactive) | > 100 µM (inactive) | > 100 µM (inactive) | > 100 µM (inactive) | > 100 µM (inactive) | > 100 µM (inactive) | 36.1 µM (inactive) | > 100 µM (inactive) |  | > 100 µM (inactive) | 50.9 µM (inactive) | > 100 µM (inactive) | > 100 µM (inactive) | > 100 µM (inactive) | > 100 µM (inactive) | > 100 µM (inactive) | > 100 µM (inactive) | > 100 µM (inactive) | > 100 µM (inactive) | > 100 µM (inactive) |
| NCC(O)CSCc1ccc(Cl)cc1 (centres undefined) | > 100 µM (inactive) | > 100 µM (inactive) | > 100 µM (inactive) | > 100 µM (inactive) | > 100 µM (inactive) | > 100 µM (inactive) | > 100 µM (inactive) | > 100 µM (inactive) |  | > 100 µM (inactive) | > 100 µM (inactive) | > 100 µM (inactive) |  | > 100 µM (inactive) | > 100 µM (inactive) | > 100 µM (inactive) | > 100 µM (inactive) | > 100 µM (inactive) | > 100 µM (inactive) | > 100 µM (inactive) |

From ChEMBL document CHEMBL1201862, “PubChem BioAssay data set” (2004)
